Measured values published in US7754773B2, “Composition and synthesis of new reagents for inhibition of HIV replication” (priority 2005, dated 2010).

Tests used:
[1] = test system: HIV-1 (X4-tropic HIV-1 variant (HIV-1LAI)); assay: Dose-response of RT activity in HIV-1 infected H9 cells; assay type: cell-based; conditions: H9 cells infected with HIV-1LAI; for RT activity / infectivity, dose response: 0, 1, 5, 10, 25 or 50 μM
Description: To evaluate the efficacy of Vif inhibitor 1 on RT activity, a dose-response experiment was conducted in infected H9 cells.
Briefly, H9 cells plated at 2×10^5 per well in a 24 well plate were treated overnight with DMSO, plus 0, 1, 5, 10, 25 or 50 μM Vif inhibitor 1 (all at 0.5% DMSO) then infected with HIV-1 (X4-tropic HIV-1 variant (HIV-1LAI)) at 2×10^5 cpm RT per well. All cells were maintained in the presence of DMSO or Vif inhibitor 1 for 14-21 days and viral replication monitored by measurement of reverse transcriptase activity in culture supernatants every second day. Calculation of % relative infectivity was determined on day 7, which was previously determined to be the peak of viral infectivity. Range correction involved fitting cpm data to a 2 parameter equation where the lower limit is 0, i.e. background correction, and the upper data limit is 100, i.e. the data is range corrected. Grafit software was used for the curve fit and calculation of the I.C.50 value.

[2] = target: T1, Vif (Human immunodeficiency virus type 1 group M subtype B, UniProt P12504); assay: Western blot of Vif in transfected 293T cell lysates; assay type: cell-based, HIV-1; conditions: 293T cells, pNL-Luc-E-R-, pVSV-G, APOBEC3G-HA; 3.125-50 μM; 24 hours post-drug
T1 construct: pNL4-3 (Vif) was used at 50 fmol, and APOBEC3G at 15 fmol; expressed in transfected cells
T1 sequence (P12504 whole entry): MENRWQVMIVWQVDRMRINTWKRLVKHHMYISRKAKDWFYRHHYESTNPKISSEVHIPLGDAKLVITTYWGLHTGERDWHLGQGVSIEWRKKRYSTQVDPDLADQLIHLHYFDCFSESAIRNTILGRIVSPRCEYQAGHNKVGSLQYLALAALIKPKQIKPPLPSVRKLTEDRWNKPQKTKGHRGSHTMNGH
Description: (§1) To determine the effect of Vif inhibitor 1 on expression of Vif and APOBC3G, 293T cells were transfected with pNL-Luc-E-R-, pVSV-G, and 15 fmoles APOBEC3G-HA. 4 hours post-transfection, the cells were treated with 3.125, 6.25, 12.5, 25, 50 μM Vif inhibitor 1 or DMSO equivalent as a control. Twenty-four hours post-drug addition, 293T total cell lysates (15 ug) were prepared, and protein lysates examined for APOBEC3G, Vif and, cyclin T1.

[3] = test system: APOBEC3G; assay: Western blot of APOBEC3G in transfected 293T cell lysates; assay type: cell-based, human; conditions: 293T cells, pNL-Luc-E-R-, pVSV-G, APOBEC3G-HA; 3.125-50 μM; 24 hours post-drug
Description: as §1

[4] = test system: pNL-Luc-E-R- virus; assay: Infectivity of virus from treated producer cells on 293T cells; assay type: cell-based, HIV-1; conditions: 293T cells infected 48 hours with 1 ng virus; producer cells treated with 3.125-50 μM
Description: Infectivity was determined by infecting 293T cells for 48 hours with 1 ng virus produced from the producer cells in the experiments shown in FIG. 21A. The infectivity of the sample of virus produced without APOBEC3G was normalized to 100%, and data was representative of three independent experiments.

[5] = test system: APOBEC3G; assay: APOBEC3G-HA level co-expressed with pNL4-3-LucE-R-, Western blot; assay type: cell-based, human; conditions: 3.75, 7.5, 15 or 30 fmoles APOBEC3G-HA; 5 uM
Description: (§2) To evaluate the effect of Vif inhibitor 1 on levels of APOBEC3G and APOBEC3F proteins, a dose-response experiment was performed. pNL4-3-LucE-R- was co-expressed with 3.75, 7.5, 15, or 30 fmoles APOBEC3G-HA (or APOBEC3F-HA) in the absence (DMSO) or presence (5 uM) of Vif inhibitor 1. The pNL4-3-LucE-R- ΔVif with the same amounts of APOBEC3G or F in the presence of DMSO were used as controls. APOBEC3G or APOBEC3F expression was confirmed by Western blot using an α HA anti body, with cyclin T1 used as the internal control.

[6] = test system: APOBEC3F; assay: APOBEC3F-HA level co-expressed with pNL4-3-LucE-R-, Western blot; assay type: cell-based; conditions: 3.75, 7.5, 15 or 30 fmoles APOBEC3F-HA; 5 uM
Description: as §2

[7] = target: T1, Vif; assay: Vif protein levels in H9 cells infected with pNL4-3Luc-E-R-; assay type: cell-based, HIV-1; conditions: 12.5, 25 or 50 μM, 48 hours
Description: To evaluate the effect of Vif inhibitor 1 on levels of Vif protein, H9 cells were infected with pNL4-3Luc-E-R- using a spinoculation procedure with the virus equivalent of 1 μg pNL4-3 Luc-E-R- or Δ Vif pNL4-3 Luc-E-R- (as measured using p24 ELISA). […] H9 total cell lysates were then prepared, and 20 μg of lysate examined for the presence of cyclin T1, endogenous APOBEC3G, p24, and Vif, the latter two indicative of virus infection.

[8] = target: T1, Vif; assay: Vif protein levels in H9 versus MT4 cells infected with pNL4-3Luc-E-R-; assay type: cell-based, HIV-1; conditions: 50 μM; 48 hours
Description: To determine whether there was a difference in the effect of Vif inhibitor 1 on Vif protein levels in permissive versus non-permissive cells, H9 and MT4 cells were infected using a spinoculation procedure with the virus equivalent of 1 μg pNL4-3 Luc-E-R- or Δ Vif pNL4-3 Luc-E-R- (as measured using p24 ELISA). Immediately following infection, H9 or MT4 cells were washed and incubated in complete RPMI medium with 10% FCS containing DMSO (0.5%) or 50 μM Vif inhibitor 1 (also 0.5% DMSO) for 48 hours. H9 or MT4 total cell lysates were then prepared, and 20 μg of lysate was examined for the presence of cyclin T1, endogenous APOBEC3G, p24, and Vif, the latter two being indicative of virus infection.

[9] = target: T2, pNLA1-YFP (Vif activity) (Human immunodeficiency virus type 1 group M subtype B, UniProt P69723); assay: pNLA1-YFP fluorescence in transfected 293T cells; assay type: cell-based, HIV-1; conditions: 3.125-50 μM, with or without 15 fmoles pAPOBEC3G-HA, 24 hours
T2 construct: YFP; expressed in transfected cells; host or cells: 293T cells
T2 sequence (P69723 whole entry): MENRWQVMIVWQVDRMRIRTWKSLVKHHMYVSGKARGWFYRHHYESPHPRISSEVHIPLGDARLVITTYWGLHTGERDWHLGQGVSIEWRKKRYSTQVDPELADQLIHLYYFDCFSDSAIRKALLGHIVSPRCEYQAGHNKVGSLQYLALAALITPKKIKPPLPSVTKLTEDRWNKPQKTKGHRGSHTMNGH
Description: 293T cells transfected with 50 fmoles pNLA1-YFP or pNLA1-YFP with 15 fmoles pAPOBEC3G-HA were treated 4 HRS post-transfection with 3.125, 6.25, 12.5, 25, 50 μM Vif inhibitor 1 or DMSO equivalent (0). Twenty-four hours post-drug addition, 293T total cell lysates were prepared and normalized to equal protein amounts prior to being monitored, in triplicate, for YFP fluorescence. Curve fits for full dose responses of Vif inhibitor 1 are shown, and calculation of “% Vif activity” for concentration of compound Vif inhibitor 1 was determined using Grafit software.

## COc1ccccc1NC(=O)c1ccccc1Sc1ccc([N+](=O)[O-])cc1 [Vif inhibitor 1, 2-(4-Nitrophenylthio)-N-(2-methoxyphenyl)benzamide]
[1]
  RT activity / infectivity, dose response: inhibits RT activity in a dose dependent manner
[1]; listed as Vif Inhibitor 1
  RT activity / infectivity, dose response: dose-dependent decrease in infectivity
[1]; Human immunodeficiency virus 1, 168 h, 0-50 μM, determined on day 7, read-out: I.C.50 of RT activity (% relative infectivity)
  IC50: ~6.4 µM
[2]
  Vif expression: decreases Vif expression
[3]
  APOBEC3G expression: increases APOBEC3G expression
[4]
  Infectivity of virus produced from treated producer cells: decrease infectivity in a dose-dependent manner
[5]
  APOBEC3G level: increases
[6]
  APOBEC3F level: increases
[7]
  Levels of Vif protein in H9 cells: significantly reduces levels of Vif protein
[8]
  Levels of Vif protein, non-permissive H9 versus permissive MT4 cells: significantly reduces levels of Vif protein in non-permissive H9 cells compared to permissive MT4 cells
[9]
  pNLA1-YFP fluorescence (% Vif activity): dose-dependent decrease in pNLA1-YFP only in the presence of APOBEC3G
